Here are results for 46 molecules from US9215875B2 (priority 2008, dated 2015).

This data set is described as follows: log P determination by HPLC on reversed-phase columns (C 18), acidic range pH 2.7. To be noted: for logP: HPLC; for chromatographic logP: reversed-phase HPLC column (C 18). The format is physicochemical.
The mark [1] stands for this setting: pH 2.7, only value, or main isomer.
[2] abbreviates: pH 2.7, second-listed (minor) isomer of the isomer mixture.
Setting [3] is: pH 2.7, pH 2.7, preparation example, only value or main isomer, read-out: log P (pH2.7).
Setting [4] is: pH 2.7, HPLC, pH 2.7, only value, or main isomer, read-out: logP.
Where [5] appears, read: pH 2.7, HPLC, pH 2.7, second-listed (minor) isomer of the isomer mixture, read-out: logP.
[6] abbreviates: pH 2.7, pH 2.7, preparation example, minor isomer, read-out: log P (pH2.7).

Where two headings read alike, the source gives them in different places.

For `O=C(Cc1cc(Cl)ccc1Cl)N1CCC(c2nc(C=NOC3CCCCC3)cs2)CC1` (mixture of isomers) [I-35], the logP (as a rule, a log measure of how a compound divides between an organic and an aqueous phase) under setting [1] came to 5.10; the lipophilicity (logP) under setting [2] stood at 5.45.

Take `Cc1cc(C(F)(F)F)nn1CC(=O)N1CCC(c2nc(C=NN3CCCCC3)cs2)CC1` [I-16]: the logP under setting [1] is reported as 3.00.

Molecule `CC(C)(C)c1cc(C(F)(F)F)nn1CC(=O)N1CCC(c2nc(C=NOCc3ccc(Cl)cc3)cs2)CC1` [I-29] showed a logP under setting [1] of 4.75.

For `Cc1cc(C(F)(F)F)nn1CC(=O)N1CCC(c2nc(C=NN(C)Cc3ccccn3)cs2)CC1` [I-11], the logP under setting [1] is 1.82.

In the case of `CCc1cc(CC)n(CC(=O)N2CCC(c3nc(C=NOCc4ccc(Cl)cc4)cs3)CC2)n1` [I-25], under setting [1], the logP was determined as 3.70.

Molecule `CC(=NOCCCCc1ccccc1)c1csc(C2CCN(C(=O)Cn3nc(C(F)(F)F)cc3C)CC2)n1` [I-22] yielded a logP under setting [1] of 4.97.

In the case of `CC(C)(C)c1cc(C(F)(F)C(F)(F)F)nn1CC(=O)N1CCC(c2nc(C=NOCc3ccc(Cl)cc3)cs2)CC1` [I-31], the lipophilicity (logP) under setting [1] came out at 5.31.

For the molecule `CC(C)c1cc(C(F)(F)F)n(CC(=O)N2CCC(c3nc(C=NOCc4ccc(Cl)cc4)cs3)CC2)n1` [I-32], under setting [1], the logP was found to be 4.56.

In the case of `CC(=NOC1CCCCC1)c1csc(C2CCN(C(=O)Cn3nc(C(F)F)cc3C(F)F)CC2)n1` (mixture of isomers) [I-45], the logP runs as follows: under setting [1], 4.69; under setting [2], 4.88.

As to `CC(=NOC1CCCCC1)c1csc(C2CCN(C(=O)Cc3cc(Cl)ccc3Cl)CC2)n1` (mixture of isomers) [I-46], the logP under setting [1] turned out to be 5.87 and the logP under setting [2] is 6.17.

Regarding `CC(=NOCc1ccccc1)c1csc(C2CCN(C(=O)Cn3nc(C(F)(F)F)cc3C)CC2)n1` (mixture of isomers) [I-10], the logP is reported as 4.07 under setting [1] and 4.28 under setting [2].

The molecule `CCc1cc(C(F)(F)F)nn1CC(=O)N1CCC(c2nc(C=NOCc3ccc(Cl)cc3)cs2)CC1` [I-26] gave a logP under setting [1] of 4.30.

`CC(=NOCc1c(F)cccc1F)c1csc(C2CCN(C(=O)Cn3nc(C(F)(F)F)cc3C)CC2)n1` (mixture of isomers) [I-41]: the logP by setting is: under setting [1], 4.11; under setting [2], 4.32.

Consider `Cc1cc(C(F)(F)F)nn1CC(=O)N1CCC(c2nc(C=NOCc3ccccc3Cl)cs2)CC1` [I-18], for which the lipophilicity (logP) under setting [1] is on record as 4.04.

On to `CC(=O)c1csc(C2CCN(C(=O)Cn3nc(C(F)(F)F)cc3C)CC2)n1` [IV-1, 1-[4-(4-Acetyl-1,3-thiazol-2-yl)piperidin-1-yl]-2-[5-methyl-3-(trifluoromethyl)-1H-pyrazol-1-yl]ethanone], for which, under setting [3], the chromatographic logP is 2.25.

For the molecule `O=C(Cn1nc(C(F)(F)F)cc1C(F)(F)F)N1CCC(c2nc(C=NOCc3ccc(Cl)cc3)cs2)CC1` [I-24], the logP under setting [1] was 4.56.

Regarding `CC(=NOC1CCCCC1)c1csc(C2CCN(C(=O)Cn3nc(C(F)(F)F)cc3C)CC2)n1` (mixture of isomers) [I-44], the logP was 4.02 under setting [1] and 4.12 under setting [2].

On to `Cc1cc(C(F)(F)F)nn1CC(=O)N1CCC(c2nc(C=NN(C)c3ccc(C(F)(F)F)cn3)cs2)CC1` [I-14, 2-(1-{[5-Methyl-3-(trifluoromethyl)-1H-pyrazol-1-yl]acetyl}piperidin-4-yl)-1,3-thiazole-4-carbaldehyde methyl[5-(trifluoromethyl)pyridin-2-yl]hydrazone], for which the chromatographic logP under setting [4] came to 4.23 and the chromatographic logP under setting [3] turned out to be 4.23.

`Cc1cc(C(F)(F)F)nn1CC(=O)N1CCC(c2nc(C=NOc3ccccc3Br)cs2)CC1` [I-39] registered a lipophilicity (logP) under setting [1] of 4.14.

`CC(=NOc1ccccc1)c1csc(C2CCN(C(=O)Cn3nc(C(F)(F)F)cc3C)CC2)n1` (mixture of isomers) [I-4]: the logP reads like this: under setting [1], 4.23; under setting [2], 4.46.

With `CCCCCON=C(C)c1csc(C2CCN(C(=O)Cn3nc(C(F)(F)F)cc3C)CC2)n1` [I-20], the logP under setting [1] came to 4.71.

As to `O=C(Cc1cc(Cl)ccc1Cl)N1CCC(c2nc(C=NOCc3c(F)cccc3F)cs2)CC1` (mixture of isomers) [I-38], the logP under setting [1] is reported as 4.36 and the logP under setting [2] turned out to be 4.60.

The molecule `CC(=NOCCCc1ccccc1)c1csc(C2CCN(C(=O)Cn3nc(C(F)(F)F)cc3C)CC2)n1` [I-21] had a logP under setting [1] of 4.66.

As to `CC(C)(C)c1cc(C(F)(F)C(F)(F)F)n(CC(=O)N2CCC(c3nc(C=NOCc4ccc(Cl)cc4)cs3)CC2)n1` [I-30], the logP under setting [1] is 5.31.

In turn, `O=C(Cc1cc(Cl)ccc1Cl)N1CCC(c2nc(C=NOc3ccccc3Br)cs2)CC1` [I-40] had a lipophilicity (logP) under setting [1] of 4.90.

As to `Cc1cc(C(F)(F)F)nn1CC(=O)N1CCC(c2nc(C=NOC(C)c3ccc(Cl)cc3)cs2)CC1` (mixture of isomers) [I-8], the logP runs as follows: under setting [1], 4.34; under setting [2], 4.50.

For `CC(=NOCc1c(F)cccc1F)c1csc(C2CCN(C(=O)Cn3nc(C(F)F)cc3C(F)F)CC2)n1` (mixture of isomers) [I-42], the logP came to 4.00 under setting [1] and 4.19 under setting [2].

For the molecule `O=C(Cn1nc(C(F)F)cc1C(F)F)N1CCC(c2nc(C=NOCc3c(F)cccc3F)cs2)CC1` (mixture of isomers) [I-37], the logP runs as follows: under setting [1], 3.58; under setting [2], 3.74.

For `Cc1cc(C(F)(F)F)nn1CC(=O)N1CCC(c2nc(C=NOCc3c(F)cccc3F)cs2)CC1` (mixture of isomers) [I-36], the logP under setting [1] is recorded as 3.70 and the logP under setting [2] is 3.86.

`Cc1cc(C(F)(F)F)nn1CC(=O)N1CCC(c2nc(C=NN(c3ccccc3)c3ccccc3)cs2)CC1` [I-13] had a logP under setting [1] of 4.77.

In the case of `Cc1cc(C(F)(F)F)nn1CC(=O)N1CCC(c2nc(C=NOc3ccccc3)cs2)CC1` [I-1, 2-(1-{[5-Methyl-3-(trifluoromethyl)-1H-pyrazol-1-yl]acetyl}piperidin-4-yl)-1,3-thiazole-4-carbaldehyde O-phenyl oxime], the chromatographic logP was found to be 3.74 under setting [4], 3.94 under setting [5], 3.94 under setting [6] and 3.74 under setting [3].

Take `Cc1cc(C(F)(F)F)nn1CC(=O)N1CCC(c2nc(C=NOCc3ccc(Cl)cc3)cs2)CC1` (mixture of isomers) [I-7]: the logP by setting is: under setting [1], 4.04; under setting [2], 4.23.

Take `Cc1cc(C(F)(F)F)nn1CC(=O)N1CCC(c2nc(C=NOCc3ccccc3F)cs2)CC1` (mixture of isomers) [I-9]: the logP by setting is: under setting [1], 3.68; under setting [2], 3.84.

Under setting [1], `CCCCCCON=C(C)c1csc(C2CCN(C(=O)Cn3nc(C(F)(F)F)cc3C)CC2)n1` [I-19] gave a log partition coefficient (logP) of 5.13.

Turning to `Cc1cc(C(F)(F)F)nn1CC(=O)N1CCC(c2nc(C=NN(Cc3ccccc3)c3ccccc3)cs2)CC1` [I-12], the lipophilicity (logP) under setting [1] stood at 4.70.

Consider `O=C(Cn1nc(C(F)F)cc1C(F)F)N1CCC(c2nc(C=NOC3CCCCC3)cs2)CC1` (mixture of isomers) [I-34], for which the logP runs as follows: under setting [1], 4.12; under setting [2], 4.33.

Molecule `O=C(Cn1nc(C(F)F)cc1C(F)F)N1CCC(c2nc(C=NOCc3ccc(Cl)cc3)cs2)CC1` [I-27] displayed a lipophilicity (logP) under setting [1] of 3.90.

`Cc1cc(C(F)(F)F)nn1CC(=O)N1CCC(c2nc(C=NN(C)c3ccccc3)cs2)CC1` [I-15]: the logP under setting [1] was found to be 3.83.

Take `Cc1cc(C(F)(F)F)nn1CC(=O)N1CCC(c2nc(C=NOCc3ccccc3)cs2)CC1` (mixture of isomers) [I-2]: the logP is 3.63 under setting [1] and 3.80 under setting [2].

Take `Cc1cc(C(F)(F)F)nn1CC(=O)N1CCC(c2nc(C=NOC(C)c3ccccc3)cs2)CC1` (mixture of isomers) [I-3]: the logP is listed as 3.92 under setting [1] and 4.07 under setting [2].

As to `Cc1ccccc1CON=Cc1csc(C2CCN(C(=O)Cn3nc(C(F)(F)F)cc3C)CC2)n1` (mixture of isomers) [I-6], the logP under setting [1] amounted to 3.96 and the logP under setting [2] amounted to 4.12.

Regarding `CC(=NN1CCCCC1)c1csc(C2CCN(C(=O)Cn3nc(C(F)(F)F)cc3C)CC2)n1` [I-17, 2-[5-Methyl-3-(trifluoromethyl)-1H-pyrazol-1-yl]-1-(4-{4-[N-(piperidin-1-yl)ethanimidoyl]-1,3-thiazol-2-yl}piperidin-1-yl)ethanone], the chromatographic logP was 3.69 under setting [4] and 3.69 under setting [3].

For the molecule `CC(C)(C)c1cc(C(F)(F)F)n(CC(=O)N2CCC(c3nc(C=NOCc4ccc(Cl)cc4)cs3)CC2)n1` [I-28], under setting [1], the lipophilicity (logP) came to 4.99.

Take `CC(=NOCc1c(F)cccc1F)c1csc(C2CCN(C(=O)Cc3cc(Cl)ccc3Cl)CC2)n1` (mixture of isomers) [I-43]: the logP reads like this: under setting [1], 4.91; under setting [2], 5.16.

On to `Cc1cc(C(F)(F)F)nn1CC(=O)N1CCC(c2nc(C=NOC3CCCCC3)cs2)CC1` (mixture of isomers) [I-33], for which the logP runs as follows: under setting [1], 4.26; under setting [2], 4.48.

Regarding `CC(=NOC(C)c1ccccc1)c1csc(C2CCN(C(=O)Cn3nc(C(F)(F)F)cc3C)CC2)n1` (centres unmarked) [I-5, 2-[5-Methyl-3-(trifluoromethyl)-1H-pyrazol-1-yl]-1-(4-{4-[N-(1-phenylethoxy)ethanimidoyl]-1,3-thiazol-2-yl}piperidin-1-yl)ethanone], the chromatographic logP by setting is: under setting [4], 4.38; under setting [5], 4.54; under setting [6], 4.54; under setting [3], 4.38.
